Laboratory results published in patent publication US8754038B2, “Template-fixed peptidomimetics with CCR10 antagonistic activity” (priority 2009, dated 2014).
Numbered stars: 1 amine (or outer) side, 2 acyl side, 3 side chain; on linkers, the order of the positions; unused ones are H or OH. Square brackets hold non-standard residues; d marks the D form. Side chains are listed from the residue outwards. Peptide text beside a SMILES is read from it. * marks the point of attachment. Pro(4R-OPh) = O=C(O)[C@@H]1C[C@@H](Oc2ccccc2)CN1; Pro(cis-4-Ph) = O=C(O)[C@@H]1C[C@H](c2ccccc2)CN1; Trp(6-Cl) = N[C@@H](Cc1c[nH]c2cc(Cl)ccc12)C(=O)O; Phe(4-CF3) = N[C@@H](Cc1ccc(C(F)(F)F)cc1)C(=O)O; Pro(4R-Bn) = O=C(O)[C@@H]1C[C@@H](Cc2ccccc2)CN1; Trp(5-OH) = N[C@@H](Cc1c[nH]c2ccc(O)cc12)C(=O)O; Oic = O=C(O)[C@@H]1C[C@@H]2CCCC[C@@H]2N1; Phe(4-CN) = N#Cc1ccc(C[C@H](N)C(=O)O)cc1; X13 = CC1(C)CC[C@@H](C(=O)[*:2])N1[*:1]; 2Nal = N[C@@H](Cc1ccc2ccccc2c1)C(=O)O; Thz(5,5-Me2) = CC1(C)SCN[C@@H]1C(=O)O; cisHyp = O=C(O)[C@@H]1C[C@H](O)CN1; Hyp = O=C(O)[C@@H]1C[C@@H](O)CN1; Tic = O=C(O)[C@@H]1Cc2ccccc2CN1; Benzyl(4-Br) = Brc1ccc(C*)cc1; Pip = O=C(O)[C@@H]1CCCCN1; dPip = O=C(O)[C@H]1CCCCN1; Ac5c = NC1(C(=O)O)CCCC1; Dab = NCC[C@H](N)C(=O)O; X10 = N#Cc1ccc(C*)cc1; X14 = N#Cc1cccc(C*)c1; X8 = Cn1cncc1CCC(=O)*; Aib = CC(C)(N)C(=O)O; CO = O=C([*:1])[*:2]; NHCH2CH2OMe = COCCN*; Bn = c1ccc(C*)cc1

How the values were obtained:
[1] = molecular target: T1, human CCR10 (Homo sapiens, UniProt P46092); experiment: Calcium flux assay (CCR10 antagonism, CCL27 as agonist); assay type: cell-based; conditions: CCR10 transfected 300-19 murine pre-B cells; CCL27 30 nM
T1 construct: expressed in transfected cells
T1 sequence (P46092 1-362): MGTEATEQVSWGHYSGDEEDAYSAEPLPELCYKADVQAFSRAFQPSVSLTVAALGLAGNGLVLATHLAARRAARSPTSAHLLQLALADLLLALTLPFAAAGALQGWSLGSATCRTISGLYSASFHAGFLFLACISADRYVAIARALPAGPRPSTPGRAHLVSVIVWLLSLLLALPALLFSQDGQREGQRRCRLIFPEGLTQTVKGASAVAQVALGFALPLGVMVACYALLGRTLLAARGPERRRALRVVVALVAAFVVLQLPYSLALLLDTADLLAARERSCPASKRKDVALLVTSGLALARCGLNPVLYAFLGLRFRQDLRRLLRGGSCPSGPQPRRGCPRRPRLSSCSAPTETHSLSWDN
Description: (§1) Lyophilized peptides were weighed on a Microbalance (Mettler MX5) and dissolved in aqueous 90% DMSO to a final concentration of 10 mM unless otherwise stated. Stock solutions were kept at +4° C., and protected from light.
(§2) Peptides were assayed for CCR10 antagonism in a calcium flux assay and in a chemotaxis assay using a mouse pre-B cell line 300-19 stably transfected with human CCR10, and with human CCL27 as agonist.
The calcium flux release was assessed using CCR10 transfected 300-19 murine pre-B cells. These cells were labeled as a batch with Calcium4 Reagent (Molecular Devices, Sunnyvale, Calif.) in HBSS buffer for 60 min.
After dispensing 8×10^4 cells in each well of a 384-well black plate, a concentrated solution of the β-hairpin peptidomimetics of this invention in HBSS+0.1% BSA+0.1% DMSO (final concentration) was added to the cells. The entire plate was centrifuged and placed in a Flexstation II (Molecular Devices) automated plate reader. After reading a 20 s baseline, the Flexstation dispensed CCL27 (RnD systems) at a final concentration of 30 nM in HBSS+0.1% BSA onto the cells and calcium flux was measured for an additional 70 s.
Alternatively a FIipR384 (Molecular Devices) was used for read out of the 384-well plates. In this case about 8×10^4 cells were placed in each well, centrifuged, placed in the FlipR and after 5 s of baseline reading, the β-hairpin peptidomimetics in HBSS+0.1% BSA+0.1% DMSO (final concentration) were added. After an incubation time of 5 min, the CCL27 solution was added to the mixture and the calcium flux was measured for 200 s.
The maximum signal was determined from control wells without inhibitor. Percentage of inhibition was calculated from a range of compound concentrations, which were subsequently used to calculate IC50 values (Softmax Pro, Molecular Devices). All steps were carried out at room temperature.

[2] = molecular target: T1, human CCR10; experiment: Chemotaxis assay (CCR10-transfected 300-19 cells, CCL27 gradient); assay type: cell-based; conditions: CCR10-transfected 300-19 murine pre-B cells; 30 nM CCL27 gradient
Description: as §1, §2
The chemotactic response of CCR10-transfected 300-19 murine pre-B cells to a gradient of CCL27 (CTACK) was measured using disposable Transwell® assay plates from Costar (5 μm pore size) according to the protocol of the manufacturer. Briefly, cells were grown under sterile conditions at 37° C. with 5% CO2 in flasks containing RPMI+5% FCS, glutamine, penicillin/streptomycin (all media components were from Life Technologies) and the appropriate selection antibiotics (Puromycin, G418 or Tetracycline). For the assay, cells were pelleted by centrifugation, washed once in Dulbecco's phosphate buffered saline (DPBS), and resuspended to give 1×10^6 cells/ml in RPMI+0.5% bovine serum albumin (BSA). 100 μl of cell suspension was applied to the top of the assay filter. The β-hairpin peptidomimetics, diluted in the same assay medium, were added to both top and bottom chambers. The cells were allowed to migrate for 4-6 hours at 37° C. into the bottom chamber of the assay plate containing 30 nM of CCL27 (RnD systems). Migrated cells were counted using a FACS cytometer (Cytomics FC500, Beckman Coulter). Data normalization was performed using the number of any cells that had migrated in the absence of the β-hairpin peptidomimetic and the number of cells that have randomly migrated in absence of CCL27 [these values were taken as 100% (no inhibitory activity) and 0%, respectively]. From a range of compound concentrations IC50 were determined using Prism5 (GraphPad software).

| SMILES | IC50 [1] | IC50 [2] |
| --- | --- | --- |
| N#Cc1ccc(C[C@@H]2NC(=O)[C@@H]3C[C@@H](OCc4ccccc4)CN3C(=O)[C@H]3CCCCN3C(=O)[C@H](CO)NC(=O)[C@H](Cc3c[nH]c4ccccc34)NC(=O)C3(CCCC3)NC2=O)cc1 [compound 50, cyclo(-Phe(4CN)-Cyp-Trp-Ser-^DPip-Hyp(Bn)-)] (cyclo([Ac5c]WS[dPip][Hyp](Bn)[Phe(4-CN)])) | 0.5 ± 0.2 nM | 1.8 nM |
| CC1(C)NC(=O)[C@H](Cc2c[nH]c3ccccc23)NC(=O)[C@@H]2Cc3ccccc3CN2C(=O)[C@H]2CCCN2C(=O)[C@H](CCCNC(=N)N)NC(=O)[C@H](Cc2c[nH]c3ccccc23)NC1=O [Ex. 1, cyclo(-Trp-Aib-Trp-Arg-^DPro-Tic-)] (cyclo([Aib]WR[dP][Tic]W)) | 226 ± 187 nM | 94 nM |
| CC1(C)SCN2C(=O)[C@H]3CCCN3C(=O)[C@H](CCCNC(=N)N)NC(=O)[C@H](Cc3c[nH]c4ccccc34)NC(=O)C3(CCCC3)NC(=O)[C@H](Cc3c[nH]c4ccc(O)cc34)NC(=O)[C@@H]21 [Ex. 29, cyclo(-Trp(5OH)-Cyp-Trp-Arg-^DPro-Thz(5,5Me2)-)] (cyclo([Ac5c]WR[dP][Thz(5,5-Me2)][Trp(5-OH)])) | 214 ± 106 nM | 109 nM |
| CC1(C)CC[C@H]2C(=O)N[C@@H](Cc3c[nH]c4ccccc34)C(=O)NC3(CCCC3)C(=O)N[C@@H](Cc3c[nH]c4ccccc34)C(=O)N[C@@H](CCN)C(=O)N3CCC[C@@H]3C(=O)N21 [compound 42, cyclo(-Trp-Cyp-Trp-Dab-^DPro-Pro(5,5Me2)-)] (cyclo(W[Ac5c]W[Dab][dP][X13])) | 82.5 ± 30.4 nM | 14.2 nM |
| COCCNC(=O)NCC[C@@H]1NC(=O)[C@H](Cc2c[nH]c3ccccc23)NC(=O)C2(CCCC2)NC(=O)[C@H](Cc2c[nH]c3ccccc23)NC(=O)[C@@H]2C[C@@H]3CCCC[C@@H]3N2C(=O)[C@H]2CCCN2C1=O [Ex. 73, cyclo(-Trp-Cyp-Trp-Dab(MeO(CH2)2NHCO)-^DPro-Oic-)] (cyclo([Ac5c]W[Dab]([CO-NHCH2CH2OMe])[dP][Oic]W)) | 24.2 ± 24.5 nM | 5.3 nM |
| Cn1cncc1CCC(=O)NCC[C@@H]1NC(=O)[C@H](Cc2c[nH]c3ccccc23)NC(=O)C2(CCCC2)NC(=O)[C@H](Cc2ccc(C(F)(F)F)cc2)NC(=O)[C@@H]2C[C@@H]3CCCC[C@@H]3N2C(=O)[C@H]2CCCN2C1=O [Ex. 108, cyclo(-Phe(4CF3)-Cyp-Trp-Dab(A56)-^DPro-Oic-)] (cyclo([Ac5c]W[Dab](X8)[dP][Oic][Phe(4-CF3)])) | 34.5 ± 17.3 nM | 2.5 nM |
| NCC[C@@H]1NC(=O)[C@H](Cc2c[nH]c3ccccc23)NC(=O)C2(CCCC2)NC(=O)[C@H](Cc2ccc(C(F)(F)F)cc2)NC(=O)[C@@H]2C[C@H](c3ccccc3)CN2C(=O)[C@H]2CCCCN2C1=O [Ex. 37, cyclo(-Phe(4CF3)—Cyp-Trp-Dab-^DPip-Pro((4R)Ph)-)] (cyclo([Ac5c]W[Dab][dPip][Pro(cis-4-Ph)][Phe(4-CF3)])) | 14.8 ± 12 nM | 22 nM |
| CC1(C)NC(=O)[C@H](Cc2c[nH]c3ccccc23)NC(=O)[C@@H]2Cc3ccccc3CN2C(=O)[C@H]2CCCN2C(=O)[C@H](CCN)NC(=O)[C@H](Cc2c[nH]c3ccccc23)NC1=O [Ex. 2, cyclo(-Trp-Aib-Trp-Dab-^DPro-Tic-)] (cyclo([Aib]W[Dab][dP][Tic]W)) | 200 ± 56.5 nM | 21.6 nM |
| NCC[C@@H]1NC(=O)[C@H](Cc2c[nH]c3ccccc23)NC(=O)C2(CCCC2)NC(=O)[C@H](Cc2ccc3ccccc3c2)NC(=O)[C@@H]2CCCCN2C(=O)[C@H]2CCCCN2C1=O [Ex. 10, cyclo(-2NaI-Cyp-Trp-Dab-^DPip-Pip-)] (cyclo([2Nal][Ac5c]W[Dab][dPip][Pip])) | 43.2 ± 44.9 nM | 9.7 nM |

Other lines, results leading:

| IC50 [1] | IC50 [2] | SMILES |
| --- | --- | --- |
| 8.5 ± 3.5 nM | 8.6 nM | NCC[C@@H]1NC(=O)[C@H](Cc2c[nH]c3ccccc23)NC(=O)C2(CCCC2)NC(=O)[C@H](Cc2c[nH]c3cc(Cl)ccc23)NC(=O)[C@@H]2C[C@@H](OCc3ccccc3)CN2C(=O)[C@H]2CCCN2C1=O [compound 48, cyclo(-Trp(6Cl)-Cyp-Trp-Dab-^DPro-Hyp(Bn)-)] (cyclo([Ac5c]W[Dab][dP][Hyp](Bn)[Trp(6-Cl)])) |
| 42 ± 25.1 nM | 37 nM | NCC[C@@H]1NC(=O)[C@H](Cc2c[nH]c3ccccc23)NC(=O)C2(CCCC2)NC(=O)[C@H](Cc2c[nH]c3ccccc23)NC(=O)[C@@H]2C[C@@H](Oc3ccccc3)CN2C(=O)[C@H]2CCCN2C1=O [compound 52, cyclo(-Trp-Cyp-Trp-Dab-^DPro-Hyp(Ph)-)] (cyclo([Ac5c]W[Dab][dP][Pro(4R-OPh)]W)) |
| 127 ± 73 nM | 50.7 nM | N#Cc1cccc(CO[C@@H]2C[C@H]3C(=O)N[C@@H](Cc4c[nH]c5ccccc45)C(=O)NC4(CCCC4)C(=O)N[C@@H](Cc4c[nH]c5ccccc45)C(=O)N[C@@H](CCN)C(=O)N4CCC[C@@H]4C(=O)N3C2)c1 [compound 77, cyclo(-Trp-Cyp-Trp-Dab-^DPro-Hyp(3CNBn)-)] (cyclo([Ac5c]W[Dab][dP][Hyp](X14)W)) |
| 48.9 ± 40 nM | 143 nM | N#Cc1ccc(CO[C@@H]2C[C@H]3C(=O)N[C@@H](Cc4c[nH]c5ccccc45)C(=O)NC4(CCCC4)C(=O)N[C@@H](Cc4c[nH]c5ccccc45)C(=O)N[C@@H](CCN)C(=O)N4CCC[C@@H]4C(=O)N3C2)cc1 [compound 53, cyclo(-Trp-Cyp-Trp-Dab-^DPro-Hyp(4CNBn)-)] (cyclo([Ac5c]W[Dab][dP][Hyp](X10)W)) |
| 260 ± 154 nM | 60.1 nM | NCC[C@@H]1NC(=O)[C@H](Cc2c[nH]c3ccccc23)NC(=O)C2(CCCC2)NC(=O)[C@H](Cc2c[nH]c3ccccc23)NC(=O)[C@@H]2C[C@H](OCc3ccccc3)CN2C(=O)[C@H]2CCCN2C1=O [Ex. 51, cyclo(-Trp-Cyp-Trp-Dab-^DPro-(4S)-Hyp(Bn)-)] (cyclo([Ac5c]W[Dab][dP][cisHyp](Bn)W)) |
| 181 ± 110 nM | 5.3 nM | N#Cc1ccc(C[C@@H]2NC(=O)[C@@H]3C[C@@H](OCc4ccccc4)CN3C(=O)[C@H]3CCCN3C(=O)[C@H](CCN)NC(=O)[C@H](Cc3c[nH]c4ccccc34)NC(=O)C3(CCCC3)NC2=O)cc1 [compound 49, cyclo(-Phe(4CN)-Cyp-Trp-Dab-^DPro-Hyp(Bn)-)] (cyclo([Ac5c]W[Dab][dP][Hyp](Bn)[Phe(4-CN)])) |
| 11.6 ± 9.2 nM | 2.5 nM | NCC[C@@H]1NC(=O)[C@H](Cc2c[nH]c3ccccc23)NC(=O)C2(CCCC2)NC(=O)[C@H](Cc2c[nH]c3ccccc23)NC(=O)[C@@H]2C[C@@H](OCc3ccc(Br)cc3)CN2C(=O)[C@H]2CCCN2C1=O [compound 56, cyclo(-Trp-Cyp-Trp-Dab-^DPro-Hyp(4BrBn)-)] (cyclo([Ac5c]W[Dab][dP][Hyp](Benzyl(4-Br))W)) |
| 26.1 ± 8.1 nM | 2.3 nM | NCC[C@@H]1NC(=O)[C@H](Cc2c[nH]c3ccccc23)NC(=O)C2(CCCC2)NC(=O)[C@H](Cc2c[nH]c3ccccc23)NC(=O)[C@@H]2C[C@@H](Cc3ccccc3)CN2C(=O)[C@H]2CCCN2C1=O [Ex. 38, cyclo(-Trp-Cyp-Trp-Dab-^DPro-Pro((4R)Bn)-)] (cyclo([Ac5c]W[Dab][dP][Pro(4R-Bn)]W)) |
